Structures can show the parent of a compound that is named as a salt. Where two headings read alike, the source gives them in different places. Square brackets hold non-standard residues; d marks the D form. Peptide text beside a SMILES is read from it. 1Nal = N[C@@H](Cc1cccc2ccccc12)C(=O)O; Dmt = Cc1cc(O)cc(C)c1C[C@H](N)C(=O)O
Columns and labels:
[1] = test system: MOP receptor; conditions: inhibition of forskolin-stimulated cAMP formation, HEK cells stably expressing MOP receptor; ref Cai et al. [18]; cited from earlier work
[2] = test system: KOP receptor; conditions: inhibition of forskolin-stimulated cAMP formation, HEK cells stably expressing KOP receptor; ref Cai et al. [18]; cited from earlier work
[3] = test system: male Sprague–Dawley rats; conditions: cited from earlier work; for Antinociception, warm water tail flick test: icv, male Sprague–Dawley rats, ref Imam et al. [19]
[4] = test system: DOP receptor; conditions: inhibition of forskolin-stimulated cAMP formation, HEK cells stably expressing DOP receptor, cited from earlier work
[5] = test system: male Sprague–Dawley rats; conditions: cited from earlier work
[6] = test system: male Sprague–Dawley rats; conditions: cited from earlier work; remark: listed apart in the source
[7] = test system: male Sprague–Dawley rats; conditions: cited from earlier work; remark: listed apart in the source
[8] = test system: mice; conditions: sc, ref [27]; cited from earlier work
[9] = test system: male Sprague–Dawley rats; test: Warm-water tail flick test (antinociception), icv dosing; assay type: in vivo, rat; conditions: for Mean (± SEM) peak tail flick latency: baseline latency 2.0–3.5 s; for Mean (± SEM) ΔLatency-AUC: vehicle 0.8 (± 0.3) s.h
Method: To assess a role for opioid receptors in mediating antinociception, rats were dosed with naloxone (10 mg/kg; sc) 10 min prior icv dosing with CYX-5 at the highest dose tolerated (20 nmol).
(§1) Data are presented as mean ± standard error of mean (SEM). One-way analysis of variance was used for analysing the following data: ΔLatency-AUC of warm water tail flick data (Fig. 2B, D); % Small intestinal transit of charcoal meal data and % change of transit relative to vehicle (Fig. 3A, B); AUC of % rats with diarrhoea (% of vehicle control) (Fig. 4B), Cumulative stool weight difference from vehicle (4 h) (Fig. 4D); ΔMV-AUC, ΔRF-AUC and ΔTv-AUC (Fig. 6A–F). Two-way analysis of variance was used for the following data: MV, RF and Tv data for 2 h WPB test (Fig. 5A–F). The analyses were implemented in GraphPad Prism v9.0.0 (GraphPad Software, Inc., La Jolla, CA USA). Dunnett's multiple comparison test was used for post hoc analysis of all the data. For individual animals in the tail flick test, the increase in tail flick latency above baseline (ΔLatency) was calculated for every assessment time point, and the areas under the ΔLatency versus time curve (AUC) values were estimated using trapezoidal integration as using GraphPad™ Prism v9.0.0. For the castor oil-induced diarrhoea test, the percentage of rats with diarrhoea (%AD) was determined for each time point and plotted against time for individual animals. The areas under the curve (%AD-AUC) values were calculated using GraphPad™ Prism v9.0.0. A value of p ≤ 0.05 was the statistical significance criterion. For one-way ANOVA, F values are expressed as Fdf of treatment, residual. For two-way ANOVA, F values are expressed as Fdf of treatment, time, interaction/residual.

[10] = test system: male Sprague–Dawley rats; test: GI motility, charcoal meal test, icv dosing; assay type: in vivo, rat; conditions: for Mean (± SEM) % small intestinal transit (%SIT): n = 6, vehicle 77.3 (± 1.9) %
Method: One hour later, the rats were euthanised and the intestine was collected for measurement of the following: (i) the distance from the pylorus to the front edge of the charcoal meal; (ii) the distance between the pylorus and the distal edge of the ileum. The intestinal transit index was determined by dividing measurement (i) by measurement (ii).

[11] = test system: male Sprague–Dawley rats; test: Inhibition of castor oil-induced diarrhoea, icv dosing; assay type: in vivo, rat; conditions: for Mean (± SEM) %AUC of % rats with diarrhoea (% of vehicle control): 8 h, vehicle set at 100%; for Cumulative stool weight-area under the curve (CSW-AUC): at 4 h, vehicle 18.3 (± 1.1) g.h
Method: After an overnight fast (16 h), the pre-dosing stool consistency of individual rats was recorded. […] The weight and consistency of faeces were recorded pre-dose and hourly for 8 h post-dosing for individual animals. The scoring criteria for faeces consistency were as follows: 0 = normal faeces, 1 = well-shaped wet faeces, 2 = shapeless faeces, 3 = shapeless faeces with large amounts of liquid. A score of ≥ 2 for both weight and consistency was defined as diarrhoea.
as §1

[12] = test system: male Sprague–Dawley rats; test: Respiratory function by whole body plethysmography, icv dosing; assay type: in vivo, rat
Method: After acclimatisation for 30–60 min, respiratory parameters were recorded for 45 min pre-dosing (three 15 min cycles) and for 2 h post-dosing (eight 15 min cycles). In each cycle, rats breathed normal air for 1 min, followed by a hypercapnic gas mixture (8% CO2, 21% O2 and 71% N2) for 5 min and then a 9 min recovery period breathing normal air. Respiratory parameters recorded by the blinded tester (M.Z.I.) included minute ventilation (MV), respiratory frequency (RF) and tidal volume (Tv) using the BioSystem XA software. The baseline was calculated as the mean difference in MV (ΔMV), RF (ΔRF) and Tv (ΔTv) during the pre-dosing exposure to normal air and the hypercapnic gas mixture.

[13] = biological target: DOP receptor; conditions: mean ± SEM; ref [18]; cited from earlier work
Description: (§2) By comparison, CYX-5 is a truncated analogue of EM-2 (H-Dmt-Pro-Nal-NH2; Nal: 3-(1-naphthyl)-L-alanine) (Fig. 1). In vitro, CYX-5, like CYX-6, was a G-protein biassed ligand at MOP, DOP and KOP receptors. […] In the forskolin-stimulated cAMP assay in HEK-cells expressing murine MOP, D ...

[14] = biological target: MOP receptor; conditions: mean ± SEM; ref [18]; cited from earlier work
Description: as §2

[15] = test system: MOP receptor; conditions: guinea-pig small intestinal myenteric plexus muscle preparation; ref [18]; cited from earlier work
[16] = test system: MOP receptor; conditions: in vitro; ref [18]; cited from earlier work
[17] = test system: DOP receptor; conditions: in vitro; ref [18]; cited from earlier work
[18] = test system: KOP receptor; conditions: in vitro; ref [18]; cited from earlier work
[19] = Metabolic stability using rat liver microsomes
[20] = test system: male Sprague–Dawley rats; test: Tolerability / neuro-excitatory clinical signs after icv dosing
[21] = icv 100 nmol, n = 6, biphasic profile, data re-used, ref [19]
[22] = icv 100 nmol, data re-used, ref [19]
[23] = icv, male Sprague–Dawley rats, ref Imam et al. [19], Kuo et al. [23]
[24] = icv, male Sprague–Dawley rats, √/X not defined

Compound: H-Dmt-Pro-Tmp-Tmp-NH2 [CYX-6]
- In vitro agonist or antagonist activity, MOP receptor [1]: Agonist^a
- In vitro agonist or antagonist activity, KOP receptor [2]: Antagonist^a
- Antinociception, warm water tail flick test [3]: √^b
- In vitro agonist or antagonist activity, DOP receptor ([4]; ref Cai et al. [18]): Antagonist^a
- Respiratory function, stimulation of minute ventilation ([5]; icv, hypercapnic conditions, awake rats, ref Imam et al. [19]): √^b

Compound: CN1CC[C@]23c4c5ccc(O)c4O[C@H]2[C@@H](O)C=C[C@H]3[C@H]1C5 [morphine, morphine hydrochloride]
- First antinociceptive peak tail flick latency, mean (± SEM) [3, 21]: 8.9 (± 0.5) s
- Second antinociceptive peak tail flick latency, mean (± SEM) [3, 21]: 10.0 (± 0.0) s
- Antinociception (tail flick), in words [3, 22]: pronounced antinociception
- Mean time to first peak effect (tail flick) [3, 22]: 0.75 h
- Mean time to second peak effect (tail flick) [3, 22]: 1.5 h
- Antinociception, warm water tail flick test ([3]; Kuo et al. [23]): √^b,d
- In vitro agonist or antagonist activity, DOP receptor ([4]; ref Kuo et al. [36]): Agonist^c
- Mean (± SEM) % small intestinal transit (%SIT) ([6]; icv 100 nmol, n = 12, data re-used, ref [19]): 22.0 (± 3.4) %
- Constipation, inhibition of GI motility [6, 23]: √^b,d
- Time by which animals developed diarrhoea ([7]; icv 100 nmol, oral castor oil, data re-used, ref [19]): 7 h
- Constipation, inhibition of castor oil-induced diarrhoea [7, 23]: √^b,d
- Effect on respiratory frequency ([5]; icv 100 nmol, n = 6, hypercapnic gas mixture, relative to vehicle, data re-used, ref [19]): reduced respiratory frequency significantly
- Effect on minute ventilation ([5]; icv 100 nmol, n = 6, hypercapnic gas mixture, time of peak effect, data re-used, ref [19]): reduced minute ventilation
- Respiratory function, depression of minute ventilation ([5]; icv, hypercapnic conditions, awake rats, ref Imam et al. [19], Kuo et al. [23]): √^b,d

Compound: CN1CC[C@]23c4c5ccc(O)c4O[C@H]2C(=O)CC[C@@]3(OCCCc2ccccc2)[C@H]1C5 [14-O-phenylpropyloxymorphone]
- Fold less potent for inhibition of GI transit compared with antinociception [8]: 2.4 fold

Compound: Cc1cc(O)cc(C)c1C[C@H](N)C(=O)N1CCC[C@H]1C(=O)N[C@@H](Cc1cccc2ccccc12)C(N)=O [CYX-5, H-Dmt-Pro-Nal-NH2] (H-[Dmt]-Pro-[1Nal]-NH2)
- Mean (± SEM) peak tail flick latency ([9]; icv 3 nmol, n = 6, rats): 5.2 (± 0.6) s
- Mean (± SEM) ΔLatency-AUC ([9]; icv 3 nmol, n = 6): 3.2 (± 0.9) s.h
- Mean (± SEM) peak tail flick latency ([9]; icv 10 nmol, n = 6, rats): 4.0 (± 0.3) s
- Mean (± SEM) ΔLatency-AUC ([9]; icv 10 nmol, n = 6): 2.1 (± 0.5) s.h
- Antinociception (tail flick), in words ([9]; icv 20 nmol, highest dose tolerated): moderate antinociception
- Mean (± SEM) peak tail flick latency ([9]; icv 20 nmol, n = 7, rats): 5.5 (± 0.5) s
- Mean (± SEM) ΔLatency-AUC ([9]; icv 20 nmol, n = 7, significantly different from vehicle): 4.8 (± 0.6) s.h
- Mean time to peak effect (tail flick) ([9]; icv 3, 10 and 20 nmol, post-dose): 1 h
- Antinociception, warm water tail flick test [9, 24]: √
- Effect of naloxone pre-treatment on antinociception ([9]; naloxone 10 mg/kg sc 10 min prior to icv 20 nmol): completely attenuated
- Mean (± SEM) % small intestinal transit (%SIT) ([10]; icv 3 nmol): 68.7 (± 2.7) %
- Mean (± SEM) % small intestinal transit (%SIT) ([10]; icv 10 nmol): 64.8 (± 6.8) %
- Mean (± SEM) % small intestinal transit (%SIT) ([10]; icv 20 nmol): 64.4 (± 3.4) %
- Constipation, inhibition of GI motility [10, 24]: √
- Mean (± SEM) %AUC of % rats with diarrhoea (% of vehicle control) ([11]; icv 3 nmol, n = 7): 72.6 (± 10.8) %AD.h
- Cumulative stool weight-area under the curve (CSW-AUC) ([11]; icv 3 nmol): 11.7 (± 1.5) g.h
- Mean (± SEM) %AUC of % rats with diarrhoea (% of vehicle control) ([11]; icv 10 nmol, n = 6): 78.5 (± 7.6) %AD.h
- Cumulative stool weight-area under the curve (CSW-AUC) ([11]; icv 10 nmol): 13.4 (± 4.1) g.h
- Mean (± SEM) %AUC of % rats with diarrhoea (% of vehicle control) ([11]; icv 20 nmol, n = 6): 68.4 (± 2.6) %AD.h
- Cumulative stool weight-area under the curve (CSW-AUC) ([11]; icv 20 nmol): 2.5 (± 0.9) g.h
- Time to develop diarrhoea in all animals ([11]; icv 3, 10 and 20 nmol, oral castor oil 2.5 ml, vehicle 3 h): 5 h
- Effect on minute ventilation ([12]; icv 20 nmol, n = 6, hypercapnic conditions (8% CO2), awake rats): significant stimulatory effect
- Effect on tidal volume ([12]; icv 20 nmol, n = 6, hypercapnic gas mixture): significant increase
- Effect on respiratory frequency ([12]; icv 20 nmol, n = 6, normal air and hypercapnic gas exposure): insignificant
- Respiratory function, stimulation of minute ventilation ([12]; icv, hypercapnic conditions, awake freely moving rats, √/X not defined): √
- Ki [13]: 0.121 ± 0.0102 µM
- Ki [14]: 0.0007 ± 8e-05 µM
- In vitro agonist or antagonist activity, MOP receptor [1]: Agonist^a
- In vitro agonist or antagonist activity, KOP receptor [2]: Agonist^a
- MOP receptor agonism ex vivo [15]: potent MOP receptor agonism
- In vitro agonist or antagonist activity, DOP receptor ([4]; ref Cai et al. [18]): Antagonist^a
- Recruitment of β-arrestin2 at MOP receptor [16]: lack of recruitment
- Recruitment of β-arrestin2 at DOP receptor [17]: lack of recruitment
- Recruitment of β-arrestin2 at KOP receptor [18]: lack of recruitment
- half-life [19]: 57.6 min
- Duration of postural abnormalities (flattened torso, splayed legs, ataxia) ([20]; icv 20 nmol): up to 90 min
- Rats with mild, intermittent, transient clinical signs of neuroexcitation ([20]; icv 20 nmol): ~ 50%
- Maximum tolerated dose, icv ([20]; pilot study, rats): 20 nmol
- Side effects at 30 nmol icv ([20]; preliminary experiment, icv 30 nmol, convulsions, barrel roll, wet-dog shakes, excessive alertness): pronounced neuro-excitatory side effects
